# Earlier results, collected in patent US20190259474A1, “GAN-CNN FOR MHC PEPTIDE BINDING PREDICTION” (REGENERON PHARMACEUTICALS, INC., priority 2018, published 2019).
# Tests used:
# [1] = system: MHC-I protein complex encoded by HLA allele A829:02; settings: HLA A829:02; category transformed from IC50; also: key: binding (1); not binding (−1)
# [2] = biological target: MHC-I protein complex encoded by HLA allele A*03:01 (Homo sapiens, UniProt P04439); settings: HLA A*03:01; category transformed from IC50; also: key: binding (1); not binding (−1)
# [3] = system: MHC-I protein complex encoded by HLA allele C*16:01; settings: HLA C*16:01; category transformed from IC50; also: key: binding (1); not binding (−1)
# [4] = system: MHC-I protein complex encoded by HLA allele B*14:02; settings: HLA B*14:02; category transformed from IC50; also: key: binding (1); not binding (−1)
# [5] = biological target: MHC-I protein complex encoded by HLA allele A*02:01 (Homo sapiens, UniProt P04439, D140Y/D185E/D98H/E176V/E277Q/G131W/G231S/I119V/I121R/I166T/I218V/L300P/L318F/N151K/N90K/P208A/P217A/Q86G/Q94H/R138H/R169H/T345S); settings: HLA A*02:01; category transformed from IC50; also: key: binding (1); not binding (−1)
# [6] = system: MHC-I protein complex encoded by HLA allele B*48:01; settings: HLA B*48:01; category transformed from IC50; also: key: binding (1); not binding (−1)
# [7] = system: MHC-I protein complex encoded by HLA allele B*58:01; settings: HLA B*58:01; category transformed from IC50; also: key: binding (1); not binding (−1)
# [8] = biological target: MHC-I protein complex encoded by HLA allele A*02:03 (Homo sapiens, UniProt P04439, A173T/D140Y/D185E/D98H/E277Q/G131W/G231S/I119V/I121R/I166T/I218V/L180W/L300P/L318F/N151K/N90K/P208A/P217A/Q86G/Q94H/R138H/R169H/T345S); settings: HLA A*02:03; category transformed from IC50; also: key: binding (1); not binding (−1)
# [9] = system: MHC-I protein complex encoded by HLA allele A*02:02; settings: HLA A*02:02; category transformed from IC50
# [10] = system: MHC-I protein complex encoded by HLA allele A*68:02; settings: HLA A*68:02; category transformed from IC50
# [11] = biological target: MHC-I protein complex encoded by HLA allele A*02:06 (Homo sapiens, UniProt P04439, D140Y/D185E/D98H/E176V/E277Q/F33Y/G131W/G231S/I119V/I121R/I166T/I218V/L300P/L318F/N151K/N90K/P208A/P217A/Q86G/Q94H/R138H/R169H/T345S); settings: HLA A*02:06; category transformed from IC50
# [12] = system: MHC-I protein complex encoded by HLA allele C*03:04; settings: HLA C*03:04; category transformed from IC50; also: key: binding (1); not binding (−1)
# [13] = system: MHC-I protein complex encoded by HLA allele B*44:03; settings: HLA B*44:03; category transformed from IC50; also: key: binding (1); not binding (−1)
sequence,measurement,setting,value
AAAAAAAALY (MHC-I binding peptide),Binding Category,[1],1
AAAAALQAK (MHC-I binding peptide),Binding Category,[2],1
AAAAALWL (MHC-I binding peptide),Binding Category,[3],1
AAAAARAAL (MHC-I binding peptide),Binding Category,[4],−1
AAAAEEEEE (MHC-I binding peptide),Binding Category,[5],−1
AAAAFEAAL,Binding Category,[6],1
AAAAPYAGW (MHC-I binding peptide),Binding Category,[7],1
AAAARAAAL (MHC-I binding peptide),Binding Category,[4],1
AAAATCALV (MHC-I binding peptide),Binding Category,[8],1
same,Binding Category,[9],1
same,Binding Category,[10],1
same,Binding Category,[5],1
same,Binding Category,[11],1
AAADAAAAL (MHC-I binding peptide),Binding Category,[12],1
AAADFAHAE (MHC-I binding peptide),Binding Category,[13],−1
AAADPKVAF (MHC-I binding peptide),Binding Category,[3],1
